# Measurements published in patent US9757334B2, “Surfactant-stripped micelle compositions with high cargo to surfactant ratio” (The Research Foundation for The State University of New York, priority 2014, dated 2017).
# Assay: Absorbance and peak shift of concentrated solutions
# Type: physicochemical
# Conditions: 1000 OD/mL in 10 μm path length versus 1000 fold dilution
# Protocol: Characterization of Nanonap Physical and Optical Properties: Size and zeta potential measurement were carried out using dynamic light scattering with a Nano ZS90 Zetasizer (Malvern Instruments). Transmission electron microscopy was performed using a JEM-2010 electron microscope to determine the morphology of an aqueous dispersion of nanonaps negatively stained with 1% uranyl acetate. Absorbance was measured by with a Lambda 35 UV/VIS spectrophotometer (Perkin Elmer) at room temperature using cuvettes with 1 cm path lengths, except for the high-concentrated spectral shifting analysis which used 10 μm path-length cuvettes.
# 1 Pc and 3 Nc dyes were identified that gave rise to nanonaps with peaks at 600, 707, 793 and 863 nm (FIG. 25a, b). The nanonaps generated absorption spanning the NIR spectrum while maintaining reasonably narrow full-width half-maxima (50-100 nm). Since PA imaging can resolve multiple absorption wavelengths, multi-wavelength classes of nanoparticles are desirable. The PA spectral response of nanonaps aligned with their absorption spectra (FIG. 35). The nanoparticles could be concentrated into fully soluble solutions with absorptions of greater than 1000. […] This was assessed by measuring absorption of a concentrated solution (1000 optical densities (OD)/mL) in a 10 μm path length, and then measuring a 1000 fold dilution of the same solution in a 1 cm path length. […]
smiles,measurement,value
CC1(C)C(/C=C/C=C/C=C/C=C2\N(CCCCS(=O)(=O)O)c3ccc4ccccc4c3C2(C)C)=[N+](CCCCS(=O)(=O)[O-])c2ccc3ccccc3c21 [indocyanine green],absorption peak shift upon concentration,large absorption shifts
